The subject of data set [1] is myoblast cell preparation. In words: 5-AZA concentration and medium finding in myoblast cell preparation. The source says:
The myoblast cell preparation may be cultured in a proliferation medium in the presence of a DNA methyltransferase inhibitor, such as 5-AZA. A DNA methyltransferase inhibitor may be introduced while the myoblast cell preparation is being developed in the proliferation medium. For instance, a DNA methyltransferase inhibitor may be introduced once the myoblast cell preparation is at 50-80% cell confluence by visual inspection. A higher confluence percentage or density may be appropriate, so long as the confluence is not so high that the cells become overcrowded or grow in multiple layers, resulting in spontaneous cell fusion and/or cell death. The DNA methyltransferase inhibitor may be introduced earlier, for instance, at the same time the isolated satellite cells are added to the proliferation medium. […] Concentrations of DNA methyltransferase inhibitor used may vary. For example, the myoblast cell preparation may be cultured in proliferation medium in the presence of 5 μM of 5-AZA. […] The myoblast cell preparation may be cultured in the presence of a DNA methyltransferase inhibitor for a period of time. One appropriate period of time using 5 μM of 5-AZA is 24 hours. As few as 6 hours may be appropriate using 5 μM of 5-AZA.

The subject of data set [2] is ITGB1D. In words: ITGB1D protein quantification by Western blotting. The data set is classed as cell-based, human. The note with it: 5 μM applied before differentiation; CP cultures; 48 hours of differentiation in low serum medium. The procedure: After separation, proteins were transferred to 0.45 μm nitrocellulose membrane in a Tris-glycine buffer complemented with 20% methanol. To visualize bands and detect transfer efficiency, membranes were stained with Ponceau S. Membranes were then blocked in a buffer containing 10 mM Tris, 0.15 M NaCl, 0.1% Tween-20 and 1% BSA and incubated with a desired primary antibody (typically 1:500 to 1:1000 dilution) overnight at 4° C. After washing, membranes were incubated with peroxidase-conjugated secondary antibodies (typically at a 1:1000 dilution) for 1 hour at room temperature (Jackson ImmunoResearch Laboratories). Bandscan was identified using chemiluminescence (ECL). Bands also were analyzed by densitometry on a PXi imager (Syngene) and values expressed as arbitrary values of protein levels, normalized either by total proteins transferred on nitrocellulose membrane (as visualized with Ponceau S) or by another reference protein detected by Western blotting.
To test for protein expression levels as shown in FIG. 3A to 3E and FIGS. 4D and 4E, Western blotting was used. […]
(Immunoblotting shows a protein as a band on a membrane.)

For data set [3], the system named is C2C12 myoblasts. The note with it: cited from earlier work.
The test system of data set [4] is CpG island located in the promoter region of the human ITGB1 gene. Kind of data set: Promoter methylation PCR of ITGB1 CpG island. The class given is cell-based. The note with it: 5 μM, 24-hour treatment in proliferation medium before differentiation.
Description: Myoblast cell preparations from CP and TD study subjects were exposed to 5 μM of the DNA methyltransferase inhibitor 5-AZA in proliferation medium. 5-AZA was introduced while the myoblast cell preparations were being developed in the high-serum medium, once the myoblast cell preparations were at about 70% cell confluence by visual inspection. The myoblast cell preparations each were cultured in a high-serum medium in the presence of 5 μM of 5-AZA for 24 hours. The myoblast cell preparations then had the 5-AZA washed off by switching the myoblast cell preparations each to a low-serum medium.
Myoblasts were seeded at 50,000 cells/well, at approximately 13,000 cells/cm^2, in a 12-well plate and maintained in the same proliferation medium as described in Example 1. The cells were allowed to proliferate at 37° C. and 5% CO2 until they reach up to 50-80% cell confluence by visual inspection. The proliferating myoblasts are then treated with 5 μM 5-AZA (Sigma-Aldrich) for 24 hours to induce DNA hypomethylation before differentiation. 5-AZA was obtained from a 10 uM stock solution diluted 1:2000. In a 2000 mL well, 1 mL of 5 μM 5-AZA was used. […]
The PCR amplification curves or the intensity of the amplified product in the agarose gel following electrophoresis may be used to quantify the levels of DNA methylation for a specific promoter region. […]
The test system of data set [5] is CP and TD myoblast preparations. Kind of data set: Cell doubling time, xCELLigence RTCA DP. The note with it: 5 μM, 24 hours; FIG. 9B. The data set is classed as cell-based, human. The procedure:
FIG. 9B. A cell impedance-measuring xCELLigence RTCA DP instrument was used to quantify rates of “cell doubling time” (a measurement of cell proliferation) in CP and TD myoblast preparations, treated and non-treated with 5-AZA, as illustrated in FIG. 9B. Proliferating myoblasts were treated with 5 μM 5-AZA (Sigma-Aldrich) for 24 hours to induce DNA hypomethylation. Other cell preparations were not treated with 5-AZA to serve as a control. Following treatment, myoblasts were harvested from exponential growth phase cultures by a standardized detachment procedure using 0.05% Trypsin-EDTA and counted. […] Plates were locked in the RTCA DP device in the incubator and the impedance value of each well was automatically monitored by the xCELLigence system and expressed as a Cell Index value (CI). […] CI was recorded every 15 min for the entirety of the period. Cell doubling time was calculated from the exponential phase of the growth curve generated by the CI values using the supplied RTCA software.
A cell impedance-measuring xCELLigence RTCA DP instrument was used to quantify rates of “cell doubling time” (a measurement of cell proliferation) in CP and TD myoblast preparations, treated and non-treated with 5-AZA, as illustrated in FIG. 9B. […] Following treatment, myoblasts were harvested from exponential growth phase cultures by a standardized detachment procedure using 0.05% Trypsin-EDTA and counted. […]

In data set [6] the test system is CP patient derived myoblast cells. Kind of data set: Myoblast fusion and myotube formation, immunostaining and Fusion Index. The note with it: 5 μM, 24 hours pretreatment, 42 hours differentiation. The class given is cell-based, human.
Excerpt: Myotubes were differentiated using the following methods. Once the appropriate level of cell confluence of 50-80% was obtained for the myoblast cell preparation, fusion and differentiation of myoblasts into myotubes was promoted by switching from a high-serum medium to a low-serum differentiation medium. […] Specifically, the high-serum proliferation medium was made of Ham's F10 medium (Corning Life Sciences, Tewksbury, Mass.) combined with 20% Fetal Bovine Serum (“FBS”) (Gibco brand, Thermo Fischer Scientific, Waltham, Mass.) 10 mg/ml streptomycin, and 100 units/ml penicillin (Gibco), human recombinant bFGF (5 ng/ml) (Becton Dickenson). […] Cell preparations cultured in the low-serum differentiation medium may be analyzed for myotube formation starting from about 24 hours to about 6 weeks after switching from the high-serum to the low-serum medium.
For visual and quantitative analysis by immunostaining, the isolated satellite cell-derived myoblast cell preparations were treated for immunostaining. […] Fluorescence microscopy was performed using an epifluorescence or confocal microscope using the 20× air objective, the 40×, or 63× oil immersion objective and zoom rates between 1 and 3 in sequential scanning mode. […]
The mark [7] stands for this setting: 5 μM for 3 days (Montesano et al.).

Each structure is given as a SMILES string. Some results are limits rather than exact numbers.

`Nc1ncn([C@@H]2O[C@H](CO)[C@@H](O)[C@H]2O)c(=O)n1` [5-AZA, 5-azacytidine]: the myotube growth entry in data set [1] (0.5 μM of 5-AZA) is recorded as “not sufficiently concentrated to cause appropriate myotube growth”. The “death of the cells” value in data set [1] (50 μM of 5-AZA) is reported as “causes the death of the cells in the myoblast cell preparation”. For the same molecule, in data set [1] (human), the “concentrations lethal to cells” value is at least 50 µM. Moreover, the “ITGB1D protein expression levels” value in data set [2] is reported as “sufficient to restore ITGB1D protein expression levels”. Moreover, in data set [3] (setting [7]), the “DNA methylation and differentiation” value is “induced DNA hypomethylation and improved differentiation of C2C12 myoblasts”; the cytotoxicity entry is listed as “without overt signs of cytotoxicity”. Further, the “muscle-specific gene expression, myogenesis and myotube formation” value in data set [3] (mouse-derived C2C12 muscle cell lines) is “promoted expression of muscle-specific genes, enhanced myogenesis and myotube formation”. Besides, in data set [4], the “DNA methylation of the CpG island in the ITGB1 promoter region” value was “sufficient to cause hypomethylation of the CpG island in the ITGB1 promoter region”. In addition, the cell doubling time entry in data set [5] was “resulted in similar myoblast cell doubling times between CP and TD myoblasts”. For the same molecule, the “myoblast fusion and myotube formation, morphologically” value in data set [6] (FIG. 4B) was “sufficient to partially restore myoblast fusion and myotube formation”. Also, in data set [6] (FIG. 4C), the “myoblast fusion and myotube formation, quantitatively (Fusion Index)” value is “sufficient to partially restore myoblast fusion and myotube formation”.

Values taken from patent publication US20190112580A1, “METHODS FOR TREATING CO[…] AND RELATED CULTURED CELLS” (priority 2017, published 2019).
